Experiment: wn = mass fraction of the nth substance listed
Conditions: 101 kPa, Liquid; for viscosity: Falling or rolling sphere viscometry; for speed of sound: Frequency=3 MHz, Single path-length method; for mass density: Vibrating tube method

Cl.NNC(N)=O [semicarbazide hydrochloride] + O
Conditions	mass density, w1 = 0.01 [kg/m3]	mass density, w1 = 0.02 [kg/m3]	speed of sound, w1 = 0.01 [m/s]	speed of sound, w1 = 0.02 [m/s]	viscosity, w1 = 0.01 [mPa·s]	viscosity, w1 = 0.02 [mPa·s]
293.15 K	1002.51	1006.71	1490	1495.8	1.016	1.031
298.15 K	1001.29	1005.43	1503	1509	0.9018	0.9134
303.15 K	999.819	1003.99	1515.1	1520.9	0.8053	0.8152
308.15 K	998.185	1002.31	1525.6	1531.2	0.7251	0.733
313.15 K	996.304	1000.34	1534.3	1540	0.6562	0.6646
318.15 K	994.429	998.472	1540.7	1546.7	0.6021	0.6062

From the NIST ThermoML archive (doi:10.1016/j.jct.2019.03.011)
